# In patent publication US20260373226A1, “METHODS AND COMPOSITIONS FOR THE TREATMENT OF NEURODEGENERATIVE DISEASE” (Stealth BioTherapeutics Inc., priority 2022, published 2026):
# Entries after “also recorded” stand apart in the source; their conditions may differ.
# What was measured:
# [1] = test system: models of neurodegeneration; test: In vitro effect concentration (in vitro-in vivo correlation); type: cell-based; settings: FIG. 3A
# From the text: (§1) See Guatam M., Platform presentation. NEALS, 2022. […] See Keefe, et al. (2019); Gautam, et al. (2022); Guatam, et al. (2021). Gautam, et al., SBT-272 improved mitochondria structure and function and preserved upper motor neurons with TDP-43 pathology, Platform poster presentation, presented at NEALS poster session (2022); Bido, et al. (2021); Silva, et al. (2022); and Zariwala, et al., Effects of the mitochondria-targeting small molecule SBT-272 in the R6/2 transgenic mice of Huntington's Disease, Poster presented at Keystone Symposia poster Session, 2022.
# [2] = Tolerability in nonhuman primates, 10 daily SC injections; type: in vivo, cynomolgus monkey; settings: 10 days
# Procedure: (§2) Pharmacokinetic profile of SBT-272 in nonhuman primate plasma, CSF, and brain. The objective of this study was to determine the pharmacokinetic profile of SBT-272 in CSF and plasma when delivered by subcutaneous (SC) injection for 10 days to cynomolgus monkeys. SBT-272 solution was administered daily by SC injection for 10 days. The following parameters and endpoints were evaluated in this study: mortality, clinical observations, body weights, pharmacokinetic samples (CSF and plasma), and selected tissue collection. There was no mortality during the study. […] Additional details regarding the experimental protocol are provided below.
# Test System. Details Regarding the Test System are Provided Below: • Species: Nonhuman primate • Strain/Breed: Cynomolgus monkey • Animal Condition: Non-naïve • Animal Procurement Method: In-house colony • Animal Supplier: Charles River Laboratories • Animal Supplier Location: 531 Boul des Prairies, Laval, QC H7V 1B7, Canada • Animal Origin: Asia • Number of Males: 3 • Age at the Initiation of Dosing: 18 to 60 months • Weight at the Initiation of Dosing: 1.4 to 5.0 kg
# • Route of Administration: Subcutaneous injection into the scapular and mid-dorsal areas • Treatment Frequency: Daily • Treatment Duration: 10 days • Method: The first day of dosing is designated as Day 1. Dose formulations are allowed to warm up at ambient temperature for at least 30 minutes prior to dosing, as appropriate. The animals are temporarily restrained for dose administration and are not be sedated. The volume for each dose is administered over 1 (preferred) or 2 (as necessary) separate injections within the designated area. Injection sites are rotated daily (see FIG. 4B). If a designated subcutaneous test site is not available for a given animal on any day, then the next available test site in the rotation should be used for dosing. The injection area is marked as frequently as required to allow appropriate visualization of administration sites. Hair may be clipped or shaved if required to improve visualization of the injection sites. […]
# [3] = Time-concentration profile in plasma, CSF and brain, rat versus nonhuman primate; type: in vivo; settings: FIGS. 4A and 4C; equivalent dose levels, single or repeated SC dosing
# Procedure: Pharmacokinetic profile of SBT-272 in rat plasma, CSF, and brain (for FIG. 4A). Briefly, as described elsewhere herein, male Sprague-Dawley (SD) rats were subcutaneously administered a single, 10 mg/kg dose of SBT-272. Plasma, CSF, and brain (microdialysis) samples were obtained at the time points indicated on FIG. 4A and analyzed for SBT-272 concentration by HPLC with tandem mass spectrometry (HPLC-MS/MS).
# as §2
# [4] = Brain exposure PK in rats after single SC dose; type: in vivo; settings: rat; single 5 mg/kg SC
# Procedure: FIG. 2A is a chart showing the in vivo pharmacokinetic (PK) and pharmacodynamic (PD) response to SBT-272 brain exposure in rats. Rat brain SBT-272 concentrations up to 36 hours after a single dose of SBT-272 (5 mg/kg; subcutaneous (SC); n=8 rats per time-point).
# Evaluation of SBT-272 exposure in brain tissues after subcutaneous dosing. Brain tissues were collected, at various time points (see FIG. 2A) following a single 5 mg/kg subcutaneous (SC) administration of SBT-272 (n=8 rats per time point).
# Briefly, issues samples were weighed in 2 mL microcentrifuge tubes (micro tube 2 mL, low protein binding, with screw cap, REF 72.694.600 (Sarstedt, Germany), weight of tissues was recorded in the study file. The centrifuge tubes were kept on ice throughout the procedure. Four times tissue weight purified deionized water with 0.1% formic acid (v/w) was added. Two metal beads were placed in each microcentrifuge tube (Metal Bead Lysing Matrix Bulk, MP, USA). Brain tissues were homogenized using Bead Ruptor (Omni International, USA) for 60 seconds using a speed of […] per cycle. Homogenates (96 μL) were transferred to […] microcentrifuge tubes with surface that minimized binding (REF 04-212-3500, Nerbe Plus, Germany). Homogenates were frozen and kept at −80 °C until sample extraction for LC/MS/MS analysis. Two samples (twice 96 μL) collected, one kept if repeat required. […]
# [5] = test system: models of neurodegeneration; test: In vivo effect brain concentration (in vitro-in vivo correlation)
# From the text: as §1
# [6] = Phase 1 clinical safety and tolerability in healthy volunteers; type: in vivo, human; settings: Phase 1, healthy volunteers, SC; interim data analysis
# From the text: The primary objective of this study is to evaluate the safety and tolerability of single and multiple ascending doses of SBT-272 administered via subcutaneous injection in healthy volunteers. The secondary objects of this study are to: (a) evaluate the plasma PK of SBT-272 in healthy volunteers following subcutaneous administration of single and multiple ascending doses; and (b) to determine an appropriate dose range for subsequence clinical evaluation.
structure (smiles),measurement,setting,value
"Cc1cc(O)cc(C)c1C[C@H](NC(=O)[C@H](N)CCCNC(=N)N)C(=O)N[C@@H](CCCCN)c1nc(Cc2ccccc2)no1 [SBT-272, (R)-2-amino-N—((S)-1-(((S)-5-amino-1-(3-benzyl-1,2,4-oxadiazol-5-yl)pentyl)amino)-3-(4-hydroxy-2,6-dimethylphenyl)-1-oxopropan-2-yl)-5-guanidinopentanamide]","optimal in vitro effects, concentration",[1],10 to 100 nM
same,body weight differences related to administration,[2]; 5 mg/kg/day SC,no differences in body weights
same,mortality,[2]; 5 mg/kg/day SC,no mortality
same,tolerability,[2]; SC injection at 5 mg/kg/day,well tolerated
same,"time-concentration profile in plasma, CSF, and brain, rat versus nonhuman primate",[3],very similar in rat and nonhuman primate
same,brain penetration / biodistribution across the blood-brain-barrier,[4],brain penetrant and exhibited optimized biodistribution across the blood-brain-barrier
same,"optimal in vivo effects, concentration",[5]; FIG. 3B,10 to 100 nM
same,brain concentration as a potential target for pharmacodynamic effect,[5]; from in vitro and in vivo correlations,10 to 100 nM
same,safety profile,[6],consistent safety profile; also recorded: generally safe
